# Laboratory results as given in patent US11485751B2, “Apramycin derivatives” (WAYNE STATE UNIVERSITY, priority 2017, dated 2022).
# What was measured:
# [1] = system: AG225, Acinetobacter baumannii pittii; assay: MIC reference strain AG225; type: cell-based; settings: Acinetobacter baumannii, read-out: MIC AG225 A. baumannii
# From the text: (§1) Minimal inhibitory concentrations (MIC) have been determined by broth microdilution assays (CLSI. Methods for Dilution Antimicrobial Susceptibility Tests for Bacteria That Grow Aerobically; Approved Standard—Tenth Edition. CLSI document M07-A10. Wayne, Pa.: Clinical and Laboratory Standards Institute; 2015.).
# (§2) Table 4 and 5 show the antibacterial activity of the compounds of the invention against bacterial reference strains (table 4) and against representative clinical isolates (table 5).
# (§3) Legend to Tables: GEN, gentamicin; AMK, amikacin; PLZ, plazomicin; APR, apramycin; AG212, Escherichia coli ATCC25922; AG215, Klebsiella pneumonia; AG220, Pseudomonas aeruginosa ATCC27853; AG225, Acinetobacter baumannii pittii; AG290, Enterobacter cloacae; […], Mycobacterium smegmatis. MICs for AG192 have been determined in the presence of 0.5 μg/mL of ampicillin in the medium to mimic the synergistic effect of aminoglycoside and β-lactam antibiotics combination therapy in the treatment of Enterococcus infections in humans.
# [2] = system: Enterob. AG302 AAC(3)-II AAC(6′)-I rmtC; assay: Activity against G1405-methylated 16S-rRNA, clinical isolate AG302; type: cell-based
# From the text: as §1
# [3] = system: AG212, Escherichia coli ATCC25922; assay: MIC reference strain AG212; type: cell-based; settings: Escherichia coli, ATCC25922, read-out: MIC AG212 E. coli
# From the text: as §1, §2, §3
# [4] = system: E. coli AG153 AAC(3)-II APH(3′)-II rmtB; assay: Activity against G1405-methylated 16S-rRNA, clinical isolate AG153; type: cell-based
# From the text: as §1
# AG163 E. coli APH(3′)-I = assay: Antibacterial activity, clinical isolate AG163; type: cell-based
# From the text: as §1, §2
# [5] = system: clinical isolates carrying AAC(3)-IV; assay: MIC broth microdilution, AAC(3)-IV; type: cell-based; settings: read-out: MIC AAC(3)-IV
# From the text: as §1
# (§4) Minimal inhibitory concentrations (MICs, […]) against clinical isolates from Institute of Medical Microbiology, Univ. Zurich, and the IC50 values for bacterial, human mitochondrial and human cytosolic ribosomes are indicated.
# (§5) Minimal inhibitory concentrations (μg/ml) against clinical isolates from Institute of Medical Microbiology, Univ. Zurich, and the IC50 values for bacterial, human mitochondrial and human cytosolic ribosomes are indicated.
# (§6) The Minimal inhibitory concentrations (MICs, μg/ml) against clinical isolates from Institute of Medical Microbiology, Univ Zurich, and the IC50 values for bacterial, human mitochondrial and human cytosolic ribosomes are indicated.
# [6] = system: AG215, Klebsiella pneumonia; assay: MIC reference strain AG215; type: cell-based; settings: Klebsiella pneumoniae, read-out: MIC AG215 K. pneumonia
# From the text: as §1, §2, §3
# [7] = system: human mitochondrial ribosomes; assay: in-vitro translation assay, human mitochondrial (human chimeric) ribosomes; type: biochemical
# From the text: (§7) IC50 values for bacterial, human chimeric, and rabbit reticulocyte ribosomes have been determined by in-vitro translation assays as described previously (Proc. Nat. Ac. Sci USA 2012, 109(27):10984-10989).
# as §4
# [8] = system: SZ380, Mycobacterium smegmatis; assay: MIC reference strain SZ380; type: cell-based; settings: Mycolicibacterium smegmatis, read-out: MIC SZ380 M. smegmatis
# From the text: as §1, §2, §3
# [9] = system: Engineered E. coli pH430 WT; assay: Activity, engineered E. coli pH430 WT; type: cell-based; settings: wild type
# From the text: as §1
# isolates carrying apmA = assay: MIC broth microdilution, apmA; type: cell-based; settings: apmA resistance gene
# From the text: Minimal inhibitory concentrations (MIC) have been determined by broth microdilution assays (CLSI. Methods for Dilution Antimicrobial Susceptibility Tests for Bacteria That Grow Aerobically; Approved Standard—Tenth Edition. CLSI document M07-A10. Wayne, Pa.: Clinical and Laboratory Standards Institute; 2015.). […]
# as §5, §6
# [10] = system: Engineered E. coli pH424 armA; assay: Activity against G1405-methylated 16S-rRNA, E. coli pH424 armA; type: cell-based
# From the text: as §1
# [11] = system: K. pneum. AG269 AAC(3)-II AAC(6′)-I rmtB; assay: Activity against G1405-methylated 16S-rRNA, clinical isolate AG269; type: cell-based
# From the text: as §1
# WT clinical isolates = assay: MIC broth microdilution, WT; type: cell-based; settings: read-out: MIC WT, clinical isolates, IMM Univ. Zurich; wild type
# From the text: as §1, §4, §5, §6
# AG001 E. coli WT = assay: Antibacterial activity, clinical isolate AG001; type: cell-based
# From the text: as §1, §2
# [12] = system: AG220, Pseudomonas aeruginosa ATCC27853; assay: MIC reference strain AG220; type: cell-based; settings: Pseudomonas aeruginosa, ATCC27853, read-out: MIC AG220 P. aeruginosa
# From the text: as §1, §2, §3
# AG031 P. aer. APH(3′)-II = assay: Antibacterial activity, clinical isolate AG031; type: cell-based; set-up: unit not given here
# From the text: as §1, §2
# ATCC19977 M. abcessus = assay: MIC reference strain ATCC19977; type: cell-based; settings: read-out: MIC ATCC19977 M. abcessus
# From the text: as §1, §2
# bacterial ribosomes = assay: in-vitro translation assay, bacterial ribosomes; type: biochemical
# From the text: as §7, §4
# AG173 E. coli AAC(3)-IV = assay: Antibacterial activity, clinical isolate AG173; type: cell-based
# From the text: as §1, §2
# [13] = system: human cytosolic ribosomes; assay: in-vitro translation assay, human cytosolic ribosomes; type: biochemical
# From the text: as §7, §4
# AG038 MRSA = assay: Antibacterial activity, clinical isolate AG038; type: cell-based
# From the text: as §1, §2
# [14] = system: AG290, Enterobacter cloacae; assay: MIC reference strain AG290; type: cell-based; settings: Enterobacter cloacae, read-out: MIC AG290 E. cloacae
# From the text: as §1, §2, §3
# [15] = system: A baum. AG227 APH(3′)-I armA; assay: Activity against G1405-methylated 16S-rRNA, clinical isolate AG227; type: cell-based
# From the text: as §1
SMILES,MIC [1] [µg/mL],Activity Enterob. AG302 AAC(3)-II AAC(6′)-I rmtC [2],MIC [3] [µg/mL],Activity E. coli AG153 AAC(3)-II APH(3′)-II rmtB [4],MIC [5] [µg/mL],MIC [6] [µg/mL],IC50 [7] [µM],MIC [8] [µg/mL],Activity E. coli pH430 WT [9],MIC (isolates carrying apmA) [µg/mL],Activity E. coli pH424 armA [10],Activity K. pneum. AG269 AAC(3)-II AAC(6′)-I rmtB [11],MIC (WT clinical isolates) [µg/mL],Antibacterial activity AG001 E. coli WT (AG001 E. coli WT),MIC [12] [µg/mL],MIC (ATCC19977 M. abcessus) [µg/mL],IC50 (bacterial ribosomes) [µM],Antibacterial activity AG173 E. coli AAC(3)-IV (AG173 E. coli AAC(3)-IV),IC50 [13] [µM],Antibacterial activity AG038 MRSA (AG038 MRSA),other results
CN[C@H]1C(O)C2O[C@H](O[C@@H]3C(N)C[C@@H](N)[C@@H](O)[C@H]3OCC(O)CN)C(N)C[C@@H]2O[C@@H]1O[C@H]1OC(CO)[C@@H](N)[C@H](O)C1O (some centres unmarked) [DC209],4,2,2 to 4,2-4,8,1,146,0.125,2-4,64 to 128,2,1,2 to 4,2,2 to 4,0.5 to 1,0.04,32,105,1-2,Antibacterial activity AG163 E. coli APH(3′)-I (AG163 E. coli APH(3′)-I): 4; Antibacterial activity AG031 P. aer. APH(3′)-II (AG031 P. aer. APH(3′)-II): 4; MIC [14]: 1 µg/mL; Activity A baum. AG227 APH(3′)-I armA [15]: 2-4
CNC1C(O)C2O[C@H](O[C@@H]3C(N)C[C@@H](N)[C@@H](O)[C@H]3OCC(O)CO)C(N)C[C@@H]2O[C@@H]1O[C@H]1OC(CO)[C@@H](N)[C@H](O)C1O (some centres unmarked) [DC208],16,4,8,8,64,4,434,0.5,4-8,> 128,2,4,4 to 8,8,16 to 32,2,0.21,>64,> 1000,8-16,Antibacterial activity AG031 P. aer. APH(3′)-II (AG031 P. aer. APH(3′)-II): 32; MIC [14]: 4 µg/mL; Activity A baum. AG227 APH(3′)-I armA [15]: 8
CN[C@H]1C(O)C2O[C@H](O[C@@H]3C(N)C[C@@H](NC(=O)C(O)CCN)[C@@H](O)[C@H]3O)C(N)C[C@@H]2O[C@@H]1O[C@H]1OC(CO)[C@@H](N)[C@H](O)C1O (some centres unmarked) [DC191],8,2-4,2,4,4 to 8,1 to 2,98,0.5,2-4,8,2,2,2 to 4,8,4,2,0.2,4-8,87,4,MIC [14]: 2 µg/mL; Activity A baum. AG227 APH(3′)-I armA [15]: 4
CN[C@H]1C(O)C2O[C@H](O[C@@H]3C(N)C[C@@H](N)[C@@H](O)[C@H]3OCCCN)C(N)C[C@@H]2O[C@@H]1O[C@H]1OC(CO)[C@@H](N)[C@H](O)C1O (some centres unmarked) [DC213],8,4-8,4 to 8,32,64,2,327,0.25,4,64 to 128,4,4-8,4,16,8,1,0.21,128,210,4,Antibacterial activity AG031 P. aer. APH(3′)-II (AG031 P. aer. APH(3′)-II): 16-32; MIC [14]: 4 to 8 µg/mL; Activity A baum. AG227 APH(3′)-I armA [15]: 4-8
